This is an account of results in patent US10301323B2, “Histone deacetylase inhibitors” (BIOMARIN PHARMACEUTICAL INC., priority 2011, dated 2019).

Where two headings read alike, the source gives them in different places. A value given as a limit tells only on which side of the number the result lay.

One data set has as its system HCT116 cells. The data set can be described thus: Cell proliferation assay. The data set is classed as cell-based. The settings on record: Homo sapiens, HCT-116, 72 h, read-out: Hct-116 (anti-proliferation IC50). The procedure: HCT116 cells (5000 cells/well) in 80 μL McCoy's 5 A medium containing 10% v/v FBS, 1% v/v penicillin/streptomycin and 1% v/v L-glutamine were incubated in 96-well plates with compounds at various concentrations for 72 h at 37° C. in a 5% CO2 atmosphere. The compound dilutions were made in 100% DMSO followed by parallel dilutions in media. The final concentration of DMSO in each well was 0.05%. After 72 h, 20 μL of Cell titer 96 aqueous one solution (Promega Corporation, Madison, Wis.) were added to the cells and the plate was incubated at 37° C. for another 4 h. The absorbance at 490 nm was then recorded on a 96-well plate reader (Spectramax M2, Molecular Devices, Sunnyvale, Calif.). Data analysis was performed in Microsoft Excel (Microsoft Corp, Redmond, Wash.).

A further data set has as its system C57BL/6J male mice. The data set can be described thus: Long term memory for object recognition. Type of data set: in vivo. The note with it: 3, 10, 30 mg/kg subcutaneous; object recognition memory task. On the procedure:
C57BL/6J male mice were handled 1-2 min for 5 days and were habituated to the experimental apparatus 5 min a day for 4 consecutive days in the absence of objects. […] 24-h later mice were tested for memory retention (5 min) using the object recognition memory task (ORM), in which a familiar object was replaced with a novel one. All training and testing trials were videotaped and analyzed by individuals blind to the treatment condition and the genotype of subjects. A mouse was scored as exploring an object when its head was oriented toward the object within a distance of 1 cm or when the nose was touching the object. The relative exploration time was recorded and expressed by a discrimination index [DI=(tnovel−tfamiliar)/(tnovel+tfamiliar)×100].

Data set [1] relates to GM 15850 (lymphoblastoid cells line) cells. The data set can be described thus: In-cell deacetylase inhibition assay (DAC assay). The data set is classed as cell-based. The settings on record: Homo sapiens, GM15850, GM 15850 cells, 4 h incubation. On the procedure:
Compound dilutions were made in 100% DMSO followed by parallel dilution in media with 2% DMSO. 10 μl of the compound dilutions were added to the cells to achieve the desired concentrations. The final concentration of DMSO in each well was 0.2%. The cells were incubated for 4 h at 37° C. with 5% CO2. After incubation, the cells were centrifuged down and the supernatant was removed. […] The reaction was stopped after 30 min incubation by addition of 50 μL developer (6 mg/mL trypsin in HDAC assay buffer). The reaction was allowed to develop for 30 min at room temperature and the fluorescence signal was detected using a fluorometer (Spectramax M2, Molecular Devices, Sunnyvale, Calif.) with excitation and emission wavelengths of 360 nm and 470 nm respectively. The data was fitted to a sigmoidal dose response equation with variable slope in GraphPad Prism 5.0 (GraphPad Software, La Jolla, Calif.) to determine IC50. Bottom and top of the curve were fixed to the average fluorescence response of control wells with no cells and cells but no compound respectively.

The nature of data set [2]: Compound stability in hepatocytes. The settings on record: human hepatocytes, 5 μM compound.
Protocol: To assess the stability and metabolism of RGFP compounds in hepatocytes. This assay was designed to evaluate the metabolism of RGFP compounds, following their incubation with human, monkey, dog and rat hepatocytes by monitoring either parent drug disappearance or metabolite appearance using HPLC.
Procedure: • Turn on the water-bath heater to 37° C. • Take out the KHB buffer and make sure it is at room temp before use • Prepare 2.5 mM concentration of RGFP compound in DMSO stock • Add 10 μL of above DMSO stock to 2490 μL KHB buffer; final concentration of RGFP compound will be 10 μM • Pre-warm 45 ml InVitro HT Medium to 37° C. in a sterile 50 ml conical tube • Add 1.0 mL Torpedo Antibiotic Mix per 45 mL InVitro HT medium • Transfer 13 mL of warm HT medium with Antibiotic Mix into a 15 mL conical tube. • Carefully remove the hepatocyte vials from liquid nitrogen (liquid phase). • Immediately immerse the vial into a 37° C. water bath. Shake gently until the ice melts entirely. […] Loosen the cell pellet by gently swirling the centrifuge tube • Transfer 100 μL of above solution to a different tube and add 900 μL of KHB buffer to count the cells • Determine the total cell count and the number of viable cells using the Trypan Blue exclusion method • Once you obtain the cell count, multiply the number by 10 (attributing to the dilution factor) • Now add required volume of KHB buffer to the tube containing hepatocytes such that the final count will be 2 million cells/mL • Dispense 50 μL of 2 million cells/ml to a 96 well plate and then add 50 μl of DMSO stock to respective wells (such that, the concentration of RGFP compounds is 5 μM and number of cells are 100000 in each well) • Place the plates on a shaker in a 37° C. incubator with 5% CO2 • Separate plates for each time point are advisable (Time points: 0 h, 1 h, 2 h, and 6 h) • After each time point, add 100 μL of quenching solution. • Quenching solution is an acetonitrile solution containing RGFP531 (10 μM) internal standard, 0.1% formic acid and phenylglyoxol (400 μM). The formic acid and phenylglyoxal is used for the identification and quantification of OPD as mentioned above. • Pipette up and down a few times to ensure a complete stop of reaction • Transfer all the solution into a 1.5 ml tube, vortex thoroughly, and centrifuge at 14000 RPM at 4° C. for 5 minutes to precipitate cell debris
Transfer the 150 μL of supernatant to vials for analysis using HPLC
A short description of data set [3]: Brain penetration studies. The settings on record: Table 4; mice dosed s.c. at 5 mg/kg or 50 mg/kg, or i.v. at 5 mg/kg; Cmax(brain)/Cmax(plasma).
Protocol: Test compounds were prepared at either 0.5 mg/ml or 5 mg/ml in 30% hydroxypropyl-β-cyclodextrin, 100 mM sodium acetate pH 5.5, 5% DMSO. C57/BL6/J mice were dosed s.c. at 5 mg/kg or 50 mg/kg, or i.v. at 5 mg/kg. Animals were euthanized at pre-dose, 5, 15, 30 min, 1, 2 and 4 hours post-dose and plasma and brain obtained. Three animals per dose per time points were used. The levels of compound in the plasma and brain were determined by standard LC/MS/MS methods. Brain/plasma ratio (BPR) was calculated as the ratio of the Cmax(brain)/Cmax(plasma).
The test system of data set [4] is frataxin (FXN) mRNA in primary lymphocytes from Friedreich's ataxia patient donors. The data set can be described thus: Effect of HDAC inhibitors on frataxin (FXN) mRNA expression. The data set is classed as cell-based, human. The note with it: Table 4, concentration required for a 2-fold increase in FXN mRNA, 48 hours. The procedure: Blood is collected from Friedreich's ataxia patient donors into tubes containing the anti-coagulant EDTA. Primary lymphocytes are isolated using Lymphocyte Separation Medium (MP Biomedicals, Solon, Ohio) following the manufacturer's instructions and including a few modifications made by Repligen. After a final wash in Phosphate Buffered Saline (PBS), the cells are distributed into a 6-well cell culture plate in cell growth medium. The test HDAC inhibitor compound is added to cells in a dose escalating manner (usually concentrations range from 1 to 10 μM) and 0.1% DMSO is added to one well of cells as a no treatment control. Cells are incubated for 48 hours at 37° C. in a CO2 incubator; cell counts are taken using a Countess automated cell counter (Invitrogen, Carlsbad, Calif.). Equivalent numbers of cells for all treatment conditions are pelleted by centrifugation and resuspended in cell lysis buffer. Total RNA is isolated from approximately 1×10^6 primary lymphocytes using a RNeasy Mini Kit (Qiagen, Valencia, Calif.), following the manufacturer's instructions and including an optional on-column DNAse digestion step. […] The RNA yield and concentration is determined using a Nanodrop spectrophotometer (Thermo Fisher Scientific, Waltham, Mass.) and depending on the RNA concentration, one of two protocols is used to measure frataxin (FXN) transcript levels. […] In both methods each RNA sample is analyzed in triplicate (preferably) or duplicate (minimally) using a one-step qRT-PCR master mix that contains all the components necessary for cDNA synthesis and PCR amplification in a single, continuous reaction. […] The amount of FXN (or GAPDH) in the sample is determined as the relative quantity to the calibrator where the calibrator sample is assigned an arbitrary quantity of 1. The following equation is used: Relative quantity to the calibrator=2^−ΔCt where ΔCt=(Ct_gene)unknown−(Ct_gene)calibrator, gene is either FXN or GAPDH, calibrator is a DMSO control sample, and unknown is a HDACi treated sample. The relative quantity of FXN is normalized to cell number and RNA input. […]

On to `Cn1cnc(/C=C/C(=O)Nc2ccccc2N)c1` [A12], for which the IC50 in the data set on HCT116 cells is over 20 µM.

With `Nc1ccccc1NC(=O)/C=C/c1cnn(CCOc2cc(F)cc(Cl)c2)c1` [B5, (E)-N-(2-aminophenyl)-3-(1-(2-(3-chloro-5-fluorophenoxy)ethyl)-1H-pyrazol-4-yl)acrylamide], the IC50 in the data set on HCT116 cells lay within 10 to 20 µM.

For `Nc1cc(F)ccc1NC(=O)/C=C/c1cnn(C/C=C/c2ccccc2)c1` [D2, (E)-N-(2-amino-4-fluorophenyl)-3-(1-cinnamyl-1H-pyrazol-4-yl)acrylamide], the “dose dependence of the effect on long-term memory” value in the data set with C57BL/6J male mice is “no effect of dose”.

Take `Nc1ccccc1NC(=O)/C=C/c1csc(C/C=C/c2ccccc2)n1` [E2, (E)-N-(2-aminophenyl)-3-(2-cinnamylthiazol-4-yl)acrylamide]: the IC50 in data set [1] (read-out: 850 DAC (in-cell deacetylase inhibition IC50)) was 10 to 20 µM; with HCT116 cells it was over 20 µM.

Regarding `Nc1ccccc1NC(=O)c1ccc(C=C2CCN(Cc3cccnc3)CC2)c(Cl)c1` [F7], the IC50 in data set [1] (Table 4, read-out: DAC IC50) fell in the range of 5 to 10 µM.

Regarding `CN1C2CCC1CC(=Cc1ccc(C(=O)Nc3ccccc3N)cc1Cl)C2` [F8], the IC50 in data set [1] (Table 4, read-out: DAC IC50) was under 1 µM.

Consider `Nc1ccccc1NC(=O)c1ccc(C=C2COC2)cc1F` [F9], for which the IC50 in data set [1] (Table 4, read-out: DAC IC50) is under 1 µM. For the same molecule, the “% left 6h Hum” value in data set [2] is “IA (IA<10%)”.

Consider `Nc1ccccc1NC(=O)c1ccc(C=C2CN(CC3CC3)C2)c(Cl)c1` [F10], for which the IC50 in data set [1] (Table 4, read-out: DAC IC50) lay within 5 to 10 µM. Besides, the BPR entry in data set [3] is “A (A is greater than 1)”.

As for `Nc1ccccc1NC(=O)c1ccc(C=C2COC2)c(Cl)c1` [F11], the IC50 in data set [1] (Table 4, read-out: DAC IC50) is under 1 µM. Also, the BPR entry in data set [3] was “A (A is greater than 1)”.

Consider `Nc1ccccc1NC(=O)c1ccc(C=C2CN(CC3CC3)C2)cc1` [F12], for which the IC50 in data set [1] (Table 4, read-out: DAC IC50) was under 1 µM. Moreover, in data set [4], the “Fxn >2X (uM)” value is listed as “A (A if less than 5 μM)”. The BPR entry in data set [3] is recorded as “A (A is greater than 1)”. Further, the “% left 6h Hum” value in data set [2] is on record as “A (50%<A)”.

On to `Nc1ccccc1NC(=O)c1ccc(C=C2CCN(CC3CC3)CC2)cc1` [F13], for which the BPR result in data set [3] is “A (A is greater than 1)”.

Take `CC(C)(C)CN1CCC(=Cc2ccc(C(=O)Nc3ccccc3N)cc2)CC1` [F14]: in data set [1] (Table 4, read-out: DAC IC50), the IC50 lay in the range of 1 to 5 µM. Further, in data set [4], the “Fxn >2X (uM)” value is “A (A if less than 5 μM)”. Besides, in data set [3], the BPR entry was “A (A is greater than 1)”.

For `CC(C)(O)CN1CCC(=Cc2ccc(C(=O)Nc3ccccc3N)cc2)CC1` [F15], in data set [1] (Table 4, read-out: DAC IC50), the IC50 fell in the range of 1 to 5 µM. For the same molecule, the “Fxn >2X (uM)” value in data set [4] is listed as “A (A if less than 5 μM)”. Besides, the BPR entry in data set [3] is on record as “A (A is greater than 1)”. Also, in data set [2], the “% left 6h Hum” value is “A (50%<A)”.

Take `CC(C)(O)CN1CC(=Cc2ccc(C(=O)Nc3ccccc3N)cc2)C1` [F19]: the “% left 6h Hum” value in data set [2] is “A (50%<A)”.

Take `Nc1cc(F)ccc1NC(=O)c1ccc(C=C2CN(CC3CC3)C2)cc1` [F20]: in data set [2], the “% left 6h Hum” value is “A (50%<A)”.

As to `Cc1ccc(C(=O)NCCCCCC(=O)Nc2ccc(F)cc2N)cc1` [RGFP 136, reference compound], the “dose dependence of the effect on long-term memory” value with C57BL/6J male mice is on record as “Dose dependent effects”.
